In one series the test system is PP2A. The series can be described thus: Okadaic acid-induced PP2A protein expression level in PC12 cells (Western Blot). The format is cell-based. The conditions noted are these: for PP2A (Western Blot signal) / PP2A(%): 24 h. The method, then: PC12 cells were inoculated into a T25 culture flask. After the cells were attached to the wall, compound 1 and compound 2 were added, and then the cells were incubated for 2 h. 40 nmol/L okadaic acid was then added. Then, the cells were incubated for 24 h. The protein was extracted. Based on the Western Blot assay, the PP2A protein expression level in PC12 cells was detected through SDS-PAGE and transfer, immunoblotting, color development, and G: BOX chemiXR5 imaging.
In general terms: A western blot detects proteins with antibodies after separation by electrophoresis.

In a further series the test system is PC12 cells. The series can be described thus: Survival rate of PC12 cells in the okadaic acid-induced injury model (CCK-8). Format: cell-based. The method, then: PC12 cells were detached and counted. A cell suspension was prepared at 8.0×10^4 cells/mL. 100 μL of the cell suspension was added to each well of a 96-well cell culture plate. The 96-well cell culture plate was placed in an incubator at 37° C. in 5% CO2 and cultured for 24 h. In an experimental group, the PC12 cells were pre-incubated for 2 h in a culture medium containing a test compound (the concentrations of the compound were 0.1 μmol/L, 0.5 μmol/L, 1 μmol/L, 5 μmol/L, and 10 μmol/L respectively, and the concentrations of the compound were set according to the concentrations in Table 5, Table 6, Table 7, and Table 8). […] In addition, a negative control group (no test compound or okadaic acid added) and a model group (only okadaic acid added) were set. The 96-well cell culture plate was placed in an incubator at 37° C. in 5% CO2 and cultured for 24 h. The cells in the 96-well cell culture plate were stained with 10 μL of CCK-8 in each well, and then cultured in the incubator for 1 h to 2 h. The 96-well cell culture plate was shaken gently for 10 min to mix uniformly and remove bubbles from the 96-well cell culture plate. The OD value of each well at 2=450 nm was read by using a microplate reader. A survival rate of cells was calculated.
Calculation formula for the cell survival rate: […]
The effect of each compound on the survival rate of PC12 cells in the okadaic acid- and Aβ1-42-induced injury models was determined by the CCK-8 cell proliferation assay.

In series [1] the test system is p-tauSer396 in SH-SY5Y cells. The series can be described thus: Okadaic acid-induced phosphorylation of tau protein (p-tauSer396) in SH-SY5Y cells (Western Blot). As to conditions: okadaic acid 40 nmol/L alone (model group), 24 h, SEM, n = 3. The format is cell-based, human. Here is the method: SH-SY5Y cells were cultured in vitro for 24 h in culture media containing different concentrations of compound 2. Then, the cells were treated with 40 nmol/L okadaic acid for 24 h. The p-tauSer396 level of the SH-SY5Y cells was measured by the Western Blot assay.

[2] abbreviates: compound 1 μmol/L, 2 h, then okadaic acid 40 nmol/L.
Setting [3] is: compound 5 μmol/L, 2 h, then okadaic acid 40 nmol/L.
Setting [4] is: compound 10 μmol/L, 2 h, then okadaic acid 40 nmol/L.
[5] abbreviates: Rattus norvegicus, PC-12, 24 h, compound 5 μmol/L, 2 h, then okadaic acid 50 nmol/L, 24 h, PC12 cells.
Setting [6] is: compound 5 μmol/L, 2 h, then okadaic acid 50 nmol/L, 24 h, PC12 cells.

Where “and” joins values, the source holds several entries; their conditions need not be identical. Identical values can stand only once. Counter-ions that a name gives are not always drawn.

In general, viability refers to a read-out of living cells in per cent, often relative to untreated cells. Regarding `N=c1oc2cc(CO)nn2c2ccccc12` [Compound 1, (5-imino-5H-benzo[d]pyrazolo[5,1-b][1,3]oxazin-2-yl) methanol], the results for the “PP2A (Western Blot signal)” value with PP2A (setting [2]), with PP2A (setting [3]) and with PP2A (setting [4]) were 437.09, 625.9 and 953.23, respectively. Moreover, the “PP2A(%)” value with PP2A (setting [2]) was 14%; in the series with PP2A (setting [3]), 17%; with PP2A (setting [4]) it was 22%. Moreover, the “effect on the PP2A expression level” value with PP2A (compound 1, 5 and 10 μmol/L, compared with okadaic acid only) is “can significantly increase the PP2A expression level dose-dependently”. In the series on PC12 cells (Rattus norvegicus, PC-12, 24 h, compound 0.1 μmol/L, 2 h, then okadaic acid 50 nmol/L, 24 h, PC12 cells), this compound displayed a viability at 0.1 µM of 58.2%. In the series on PC12 cells (Rattus norvegicus, PC-12, 24 h, compound 0.5 μmol/L, 2 h, then okadaic acid 50 nmol/L, 24 h, PC12 cells), this compound had a viability at 0.5 µM of 60.2%. This compound also registered a viability at 1 µM in the series with PC12 cells (Rattus norvegicus, PC-12, 24 h, compound 1 μmol/L, 2 h, then okadaic acid 50 nmol/L, 24 h, PC12 cells) of 63.1%. The viability at 5 µM in the series with PC12 cells (setting [5]) came out at 70.5%. This compound also returned a viability at 10 µM in the series with PC12 cells (Rattus norvegicus, PC-12, 24 h, compound 10 μmol/L, 2 h, then okadaic acid 50 nmol/L, 24 h, PC12 cells) of 76.6%. The “survival rate compared with okadaic acid model group” value in the series with PC12 cells (compound 0.1 μmol/L) is recorded as “statistical difference (P<0.05)”; in the series on PC12 cells (compound 0.5, 1, 5 and 10 μmol/L), “significant statistical differences (P<0.01)”. Further, the “OD value at 450 nm, Mean ± SD” value with PC12 cells (compound 0.1 μmol/L, 2 h, then okadaic acid 50 nmol/L, 24 h, PC12 cells) turned out to be 1.337 ± 0.008; with PC12 cells (compound 0.5 μmol/L, 2 h, then okadaic acid 50 nmol/L, 24 h, PC12 cells), 1.382 ± 0.013; with PC12 cells (compound 1 μmol/L, 2 h, then okadaic acid 50 nmol/L, 24 h, PC12 cells), 1.449 ± 0.013; with PC12 cells (compound 10 μmol/L, 2 h, then okadaic acid 50 nmol/L, 24 h, PC12 cells), 1.76 ± 0.032. In the series on PC12 cells (compound 5 μmol/L, 2 h, then okadaic acid 50 nmol/L, 24 h, PC12 cells, 1440 min, 5 µM), the Survival rate % is reported as 71.70%.

The compound `CCOCc1cc2oc(=N)c3ccccc3n2n1` [Compound 3, 2-(ethoxymethyl)-5H-benzo[d]pyrazolo[5,1-b][1,3]oxazin-5-imine] came in with a viability at 5 µM in the series on PC12 cells (setting [5]) of 66%. In addition, in the series on PC12 cells (setting [6]), the “OD value at 450 nm, Mean ± SD” value is recorded as 0.858 ± 0.009.

As for `CCCOCc1cc2oc(=N)c3ccccc3n2n1` [Compound 4, 2-(propoxymethyl)-5H-benzo[d]pyrazolo[5,1-b][1,3]oxazin-5-imine], the viability at 5 µM in the series with PC12 cells (setting [5]) came to 65.9%. For the same compound, in the series on PC12 cells (setting [6]), the “OD value at 450 nm, Mean ± SD” value is given as 0.856 ± 0.012.

In turn, `N=c1oc2cc(COC=O)nn2c2ccccc12` [Compound 5, (5-imino-5H-benzo[d]pyrazolo[5,1-b][1,3]oxazin-2-yl)methyl formate] displayed a viability at 5 µM in the series with PC12 cells (setting [5]) of 65.6%. Further, the “OD value at 450 nm, Mean ± SD” value in the series with PC12 cells (setting [6]) stood at 0.852 ± 0.004.

`CC(=O)OCc1cc2oc(=N)c3ccccc3n2n1` [Compound 6, (5-imino-5H-benzo[d]pyrazolo[5,1-b][1,3]oxazin-2-yl)methyl acetate] gave a viability at 5 µM in the series with PC12 cells (setting [5]) of 68.4%. Further, the “OD value at 450 nm, Mean ± SD” value in the series on PC12 cells (setting [6]) came to 0.889 ± 0.007.

In the case of `CSCc1cc2oc(=N)c3ccccc3n2n1` [Compound 7, 2-((methylthio)methyl)-5H-benzo[d]pyrazolo[5,1-b][1,3]oxazin-5-imine], the viability at 5 µM with PC12 cells (setting [5]) came to 70.8%. Also, the “OD value at 450 nm, Mean ± SD” value in the series with PC12 cells (setting [6]) is 0.919 ± 0.008.

As to `COCc1cc2oc(=N)c3ccc(C)cc3n2n1` [Compound 8, 2-(methoxymethyl)-8-methyl-5H-benzo[d]pyrazolo[5,1-b][1,3]oxazin-5-imine], the viability at 5 µM in the series on PC12 cells (setting [5]) came out at 67.5%. The “OD value at 450 nm, Mean ± SD” value in the series with PC12 cells (setting [6]) is 0.877 ± 0.009.

Consider `CCc1ccc2c(=N)oc3cc(COC)nn3c2c1` [Compound 9, 2-(methoxymethyl)-8-ethyl-5H-benzo[d]pyrazolo[5,1-b][1,3]oxazin-5-imine], for which, in the series on PC12 cells (setting [5]), the viability at 5 µM was found to be 65.6%. The “OD value at 450 nm, Mean ± SD” value in the series on PC12 cells (setting [6]) is 0.852 ± 0.010.

Take `COCc1cc2oc(=N)c3ccc(F)cc3n2n1` [Compound 10, 2-(methoxymethyl)-8-fluoro-5H-benzo[d]pyrazolo[5,1-b][1,3]oxazin-5-imine]: the viability at 5 µM with PC12 cells (setting [5]) is 64.8%. Besides, the “OD value at 450 nm, Mean ± SD” value with PC12 cells (setting [6]) was 0.842 ± 0.008.

Take `COCc1cc2oc(=N)c3cc(F)ccc3n2n1` [Compound 11, 2-(methoxymethyl)-7-fluoro-5H-benzo[d]pyrazolo[5,1-b][1,3]oxazin-5-imine]: the viability at 5 µM in the series on PC12 cells (setting [5]) was determined as 66%. The “OD value at 450 nm, Mean ± SD” value in the series on PC12 cells (setting [6]) is recorded as 0.857 ± 0.007.

Compound `COCc1cc2oc(=N)c3cc(Cl)ccc3n2n1` [Compound 12, 2-(methoxymethyl)-7-chloro-5H-benzo[d]pyrazolo[5,1-b][1,3]oxazin-5-imine] returned a viability at 5 µM with PC12 cells (setting [5]) of 66.7%. In addition, the “OD value at 450 nm, Mean ± SD” value in the series on PC12 cells (setting [6]) turned out to be 0.866 ± 0.003.

Consider `COCc1cc2oc(=N)c3cc(OC)ccc3n2n1` [Compound 13, 2-(methoxymethyl)-7-methoxy-5H-benzo[d]pyrazolo[5,1-b][1,3]oxazin-5-imine], for which, in the series with PC12 cells (setting [5]), the viability at 5 µM amounted to 67.7%. In the series with PC12 cells (setting [6]), the “OD value at 450 nm, Mean ± SD” value turned out to be 0.879 ± 0.009.

Consider `CCOc1ccc2c(c1)c(=N)oc1cc(COC)nn12` [Compound 14, 2-(methoxymethyl)-7-ethoxy-5H-benzo[d]pyrazolo[5,1-b][1,3]oxazin-5-imine], for which the viability at 5 µM in the series with PC12 cells (setting [5]) came out at 66.7%. Besides, the “OD value at 450 nm, Mean ± SD” value with PC12 cells (setting [6]) was determined as 0.866 ± 0.011.

`CCOCc1cc2oc(=N)c3cc(F)ccc3n2n1` [Compound 15, 2-(ethoxymethyl)-7-fluoro-5H-benzo[d]pyrazolo[5,1-b][1,3]oxazin-5-imine]: the viability at 5 µM in the series with PC12 cells (setting [5]) stood at 67.1%. In addition, in the series with PC12 cells (setting [6]), the “OD value at 450 nm, Mean ± SD” value is 0.872 ± 0.012.

Regarding `CCCOCc1cc2oc(=N)c3cc(F)ccc3n2n1` [Compound 16, 2-(propoxymethyl)-7-fluoro-5H-benzo[d]pyrazolo[5,1-b][1,3]oxazin-5-imine], in the series on PC12 cells (setting [5]), the viability at 5 µM amounted to 66.9%. The “OD value at 450 nm, Mean ± SD” value with PC12 cells (setting [6]) is 0.869 ± 0.005.

As to `COCCc1cc2oc(=N)c3ccc(F)cc3n2n1` [Compound 17, 2-(methoxyethyl)-8-fluoro-5H-benzo[d]pyrazolo[5,1-b][1,3]oxazin-5-imine], the viability at 5 µM in the series on PC12 cells (setting [5]) was found to be 67.9%. For the same compound, the “OD value at 450 nm, Mean ± SD” value with PC12 cells (setting [6]) was 0.882 ± 0.005.

In turn, `COCCCc1cc2oc(=N)c3ccc(F)cc3n2n1` [Compound 18, 2-(methoxypropyl)-8-fluoro-5H-benzo[d]pyrazolo[5,1-b][1,3]oxazin-5-imine] registered a viability at 5 µM with PC12 cells (setting [5]) of 65.5%. For the same compound, the “OD value at 450 nm, Mean ± SD” value in the series with PC12 cells (setting [6]) worked out at 0.851 ± 0.007.

Consider `C=C1[C@@H](O)[C@@H]2O[C@]3(CC[C@H](/C=C/[C@@H](C)[C@@H]4CC(C)=C[C@@]5(O[C@H](C[C@@](C)(O)C(=O)O)CC[C@H]5O)O4)O3)CC[C@H]2O[C@@H]1[C@@H](O)C[C@H](C)[C@H]1O[C@@]2(CCCCO2)CC[C@H]1C` [Okadaic Acid, okadaic acid, reference compound], for which, in the series with PP2A (okadaic acid 40 nmol/L alone), the “PP2A (Western Blot signal)” value is recorded as 339.39 and the “PP2A(%)” value was determined as 8%. Also, the “p-tauSer396 level (%)” value in series [1] was 0.855 ± 0.023%. The “OD value at 450 nm, Mean ± SD” value with PC12 cells (okadaic acid 50 nmol/L alone (model group), 24 h, PC12 cells) was 0.643 ± 0.014 and 1.225 ± 0.018 and 0.669 ± 0.025.

(Values after patent US20260335329A1, “PROTEIN PHOSPHATASE AGONIST AND USE” (priority 2022, published 2026).)
